Source: patent publication US8097440B1, “Engineered microorganisms capable of producing target compounds under anaerobic conditions” (Gevo, Inc., priority 2008, dated 2012)
Numbering of substitutions follows the chain as printed. Names may count otherwise.

Tests used:
[1] = target: T1, E. coli KARI Ec_IlvC variant Ec_IlvC^S78D-his6 (S78D), SEQ ID NO: 17 (Escherichia coli, UniProt P05793, S78D); assay: KARI cuvette assay, purified Ec_IlvC^S78D-his6; format: biochemical; conditions: from 1075 μM to 130 μM
T1 sequence (P05793 with tags, fused parts or gaps S78D): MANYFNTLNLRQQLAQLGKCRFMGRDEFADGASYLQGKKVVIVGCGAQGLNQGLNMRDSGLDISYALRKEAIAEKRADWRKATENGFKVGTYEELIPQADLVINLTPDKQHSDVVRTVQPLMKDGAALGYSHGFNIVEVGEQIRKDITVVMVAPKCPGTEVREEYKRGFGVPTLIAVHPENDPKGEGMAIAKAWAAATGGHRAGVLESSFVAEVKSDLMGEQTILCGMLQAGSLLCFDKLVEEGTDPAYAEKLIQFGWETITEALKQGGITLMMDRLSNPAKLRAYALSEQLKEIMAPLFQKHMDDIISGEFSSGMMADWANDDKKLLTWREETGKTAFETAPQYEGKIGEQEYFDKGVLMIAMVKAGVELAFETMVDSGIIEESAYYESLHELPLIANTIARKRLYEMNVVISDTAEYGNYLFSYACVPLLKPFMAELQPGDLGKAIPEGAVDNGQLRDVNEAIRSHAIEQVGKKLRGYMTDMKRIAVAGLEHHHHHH
Description: (§1) KARI cuvette assay: KARI activity was assayed kinetically by monitoring the decrease in NAD(P)H concentration by measuring the absorbance at 340 nm. A reaction buffer was prepared containing 250 mM potassium phosphate pH 7, 1 mM DTT and 10 mM MgCl2. Cell pellets were resuspended (0.25 g wet weight/mL buffer) in 250 mM potassium phosphate (KPi) buffer containing 1 mM DTT and 10 mM MgCl2. The resuspended cells were lysed by sonication for 1 min with a 50% duty cycle and pelleted at 11000×g and 4° C. for 15 min. A reaction mixture consisting of 910 μl reaction buffer, 50 μl acetolactate, and 20 μl lysate was prepared in a cuvette. The reaction was initiated by addition of 20 μL of 10 mM NAD(P)H. A substrate free control was conducted using reaction buffer without the addition of acetolactate.
(§2) Purification of KARI: Cell pellets used for purification were resuspended in purification buffer A (20 mM Tris, 20 mM imidazol, 100 mM NaCl, 10 mM MgCl2, pH 7.4). KARI was purified by IMAC (Immobilized metal affinity chromatography) over a 1 ml Histrap High Performance (histrap HP) column pre-charged with Nickel (GE Healthcare) using an Akta FPLC system (GE Healthcare). […]

[2] = target: T2, Escherichia coli KARI (ketol-acid reductoisomerase) Ec_IlvC^his6, wild type IlvC (SEQ ID NO: 13) with his6-tag, SEQ ID NO: 15 (Escherichia coli, UniProt P05793); assay: KARI cuvette assay, purified Ec_IlvC^his6 (parent / wild type); format: biochemical, E. coli; conditions: purified; acetolactate as substrate
T2 sequence (P05793 with tags, fused parts or gaps): T1 sequence (P05793 with tags, fused parts or gaps S78D) with D78S
Description: as §1, with “The reaction was initiated by addition of 20 μL of 10 mM NAD(P)H. A substrate free control was conducted using reaction buffer without the addition of acetolactate.” left out
Only 20% of the enzymes of the recombination library were active on NADH. After screening 1,000 clones using the NADH depletion assay at 340 nm, 26 KARI variants were selected for a rescreen by the high-throughput assay described in Example 14 and eight thereof were expressed in 25 ml LBamp medium in shake flasks according to the protocol for cell growth and protein expression in shake flasks as described in Example 14, purified according to the protocol for purification of KARI enzymes as described in Example 14, and NAD(P)H depletion at 340 nm was measured again. […] The KM values of variants Ec_llvC^2H10-his6 and Ec_llvC^6E6-his6 were measured and the catalytic efficiencies were calculated.

[3] = target: T3, E. coli KARI Ec_IlvC variant Ec_IlvC^P2D1-A1-his6 (Ec_IlvC^P2D1-his6 with K433E), SEQ ID NO: 42 (Escherichia coli, UniProt P05793, A71S/D146G/G185R/K433E/Q110V/R76D/S78D); assay: KARI assay, purified Ec_IlvC^P2D1-A1-his6; format: biochemical; conditions: expressed in yeast GEVO1186, purified
T3 sequence (P05793 with tags, fused parts or gaps A71S/R76D/S78D/Q110V/D146G/G185R/K433E): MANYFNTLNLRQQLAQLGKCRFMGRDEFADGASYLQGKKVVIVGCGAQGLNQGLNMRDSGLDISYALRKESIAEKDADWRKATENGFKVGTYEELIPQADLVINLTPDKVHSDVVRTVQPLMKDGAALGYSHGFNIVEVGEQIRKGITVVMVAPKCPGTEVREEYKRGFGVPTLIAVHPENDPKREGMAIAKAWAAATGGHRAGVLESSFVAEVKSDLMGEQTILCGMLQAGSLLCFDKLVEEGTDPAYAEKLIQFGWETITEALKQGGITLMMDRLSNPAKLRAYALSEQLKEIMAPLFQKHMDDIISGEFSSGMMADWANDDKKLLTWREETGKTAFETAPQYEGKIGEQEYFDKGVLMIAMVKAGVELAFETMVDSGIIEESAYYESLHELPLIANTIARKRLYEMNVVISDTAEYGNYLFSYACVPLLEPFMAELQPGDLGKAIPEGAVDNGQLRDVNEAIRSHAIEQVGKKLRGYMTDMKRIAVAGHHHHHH
Description: as §1, §2

[4] = system: Lactococcus lactis alcohol dehydrogenase Ll_AdhA, SEQ ID NO: 67; conditions: NADPH as cofactor; cited from earlier work
[5] = substrate: NC(=O)C1=CN([C@@H]2O[C@H](COP(=O)(O)OP(=O)(O)OC[C@H]3O[C@@H](n4cnc5c(N)ncnc54)[C@H](O)[C@@H]3O)[C@@H](O)[C@H]2O)C=CC1; assay: KARI cuvette assay, purified Ec_IlvC^S78D-his6; format: biochemical, E. coli
Description: as §1
(§3) Purification of KARI: Cell pellets used for purification were resuspended in purification buffer A (20 mM Tris, 20 mM imidazol, 100 mM NaCl, 10 mM MgCl2, pH 7.4). KARI was purified by IMAC (Immobilized metal affinity chromatography) over a 1 ml Histrap High Performance (histrap HP) column pre-charged with Nickel (GE Healthcare) using an Akta FPLC system (GE Healthcare). The column was equilibrated with four column volumes (cv) of buffer A. After injecting the crude extract, the column was washed with buffer A for 2 cv, followed by a wash step with a mixture of 10% elution buffer B (20 mM Tris, 300 mM imidazol, 100 mM NaCl, 10 mM MgCl2, pH 7.4) for 5 cv. KARI variants were eluted at 40% buffer B and stored at 4° C.
(§4) Five individual site saturation libraries were generated and electro-competent E. coli BL21(DE3) cells were transformed with the desalted ligation mixtures. 88 clones of each library were screened for NAD(P)H depletion at 340 nm in microplates. Clones with an improved NADH/NADPH consumption ratio while maintaining or increasing their NADH activity were chosen for a rescreen. Variants that passed the rescreen were sequenced, expressed in shake flasks, purified, and characterized. […]

[6] = substrate: NC(=O)C1=CN([C@@H]2O[C@H](COP(=O)(O)OP(=O)(O)OC[C@H]3O[C@@H](n4cnc5c(N)ncnc54)[C@H](OP(=O)(O)O)[C@@H]3O)[C@@H](O)[C@H]2O)C=CC1; assay: KARI cuvette assay, purified Ec_IlvC^S78D-his6; format: biochemical, E. coli; conditions: other: purified
Description: as §1, §3, §4

[7] = substrate: CC(C)C=O; assay: Alcohol dehydrogenase kinetic assay, Ec_YqhD; format: biochemical, E. coli; conditions: other: NADPH as cofactor; conversion to isobutanol
Description: E. coli strain GEVO1745 was transformed by electroporation with one of plasmids pGV1705-A, pGV1748-A, pGV1749-A, or pGV1778-A. 50 mL of TB medium (23.1 g/L KH2PO4, 125.4 g/L K2HPO4, 12 g/L Bacto-tryptone, 24 g/L yeast extract, 4 ml/L glycerol) were inoculated to an initial OD600 of 0.2 using a 3 mL overnight LB culture of a single colony. The 50 mL culture was allowed to grow for 3-4 hrs at 250 rpm and 37° C. Protein expression was induced at an OD600 of 2-2.5 by the addition of IPTG to a final concentration of 1 mM. After the addition of IPTG, protein expression was allowed to continue for 20-24 hours at 225 rpm and 25° C.
Alcohol dehydrogenase (ADH) activity was assayed kinetically by monitoring the decrease in NAD(P)H concentration by measuring the absorbance at 340 nm. A reaction buffer was prepared containing 0.1 M potassium phosphate, 0.4 mM NAD(P)H, 10 mM isobutyraldehyde, 1 mM DTT, and 1 mM PMSF. Cell pellets were resuspended in 0.1 M potassium phosphate buffer containing 1 mM DTT and 1 mM PMSF at one fifth of the culture volume, i.e. 10 mL resuspension buffer for cell pellet from a 50 mL culture. The resuspended cells were lysed by sonication for 1 min with a 50% duty cycle. The reaction was initiated by the addition of 0.5 mL of the reaction buffer to 0.5 mL of clarified lysate in a cuvette. […]

Question: What does the source list for `NC(=O)C1=CN([C@@H]2O[C@H](COP(=O)(O)OP(=O)(O)OC[C@H]3O[C@@H](n4cnc5c(N)ncnc54)[C@H](OP(=O)(O)O)[C@@H]3O)[C@@H](O)[C@H]2O)C=CC1` [NADPH, nicotinamide adenine dinucleotide phosphate]?
Answer: decrease of KM value compared to wild-type [1]: 16 fold; kcat/KM [2]: 87,300 M^−1 * s^−1; Km [3]: > 1430 µM; kcat/KM [3]: <377 M^−1 * S^−1; activity when tested with NADPH as a cofactor [4]: ^adid not show any detectably activity when tested with NADPH as a cofactor

B1: E. coli KARI Ec_IlvC variant Ec_IlvC^S78D-his6 (S78D), SEQ ID NO: 17 (Escherichia coli K-12; S78D) (protein)
chain: T1 sequence (P05793 with tags, fused parts or gaps S78D)
Question: For B1, which kcat/Km ([5]; other: purified, acetolactate as substrate) is on record?
Answer: 27,600 M^−1 * s^−1

Question: What about the kcat/Km ([5]; with NADH) of the same molecule?
Answer: 3770 M⁻¹ s⁻¹

Question: And the Km [6]?
Answer: 130 µM

B2: E. coli alcohol dehydrogenase Ec_YqhD, SEQ ID NO: 69 (Escherichia coli K-12) (protein)
chain: MNNFNLHTPTRILFGKGAIAGLREQIPHDARVLITYGGGSVKKTGVLDQVLDALKGMDVLEFGGIEPNPAYETLMNAVKLVREQKVTFLLAVGGGSVLDGTKFIAAAANYPENIDPWHILQTGGKEIKSAIPMGCVLTLPATGSESNAGAVISRKTTGDKQAFHSAHVQPVFAVLDPVYTYTLPPRQVANGVVDAFVHTVEQYVTKPVDAKIQDRFAEGILLTLIEDGPKALKEPENYDVRANVMWAATQALNGLIGAGVPQDWATHMLGHELTAMHGLDHAQTLAIVLPALWNEKRDTKRAKLLQYAERVWNITEGSDDERIDAAIAATRNFFEQLGVPTHLSDYGLDGSSIPALLKKLEEHGMTQLGENHDITLDVSRRIYEAAR
Question: For B2, which Km [7] is on record?
Answer: 250 µM
